The series relates to chronic lymphocytic leukemia (CLL) samples classified by expression subtype (Ec-i, EC-m1, EC-m2, EC-m3, EC-m4, EC-o, EC-u1, EC-u2). Briefly: Ex-vivo drug sensitivity (percent viability) of CLL samples compared between expression subtypes (ECs). On Mean viability in the EC: test concentration or dose not given here. On Mean viability in the other ECs: test concentration or dose not given here. Type of series: cell-based. The source says: An analysis was completed to determine whether the expression clusters (ECs) can be used to predict the resistance and sensitivity of different chronic lymphocytic leukemias to various drugs. […] The expression subtypes were then used with the drug sensitivity data to compare the percent […] of samples in each expression cluster to the percent viability of samples in all other expression clusters.

*1 amine or outer side, *2 acyl side, *3 side chain or, on linkers, in order; H or OH if unused. Where a SMILES comes first, the peptide text is derived from it. Bridges are numbered along the chain shown (N, C = ends). Roman numbers before positions name the chains, in order. [ ]: non-standard residue; d: D form. Actinocin(9to1) = Cc1c2oc3c(C)ccc(C(=O)[*:1])c3nc-2c(C(=O)[*:2])c(N)c1=O; NMeV = CN[C@H](C(=O)O)C(C)C; Sar = CNCC(=O)O

As to `C=CCn1c(=O)c2cnc(Nc3ccc(N4CCN(C)CC4)cc3)nc2n1-c1cccc(C(C)(C)O)n1` [MK-1775], the “Mean viability in the other ECs” value (all ECs other than EC-m3) is given as 1.00 and the “Mean viability in the other ECs” value (all ECs other than EC-u1) is recorded as 1.02. Moreover, the “Drug response associated with the EC” value is on record as “Resistant” (expression cluster EC-m3) and “Sensitive” (expression cluster EC-u1). Moreover, the “Mean viability in the EC” value runs as follows: (expression cluster EC-m3) 1.04; (expression cluster EC-u1) 0.98.
In the case of `C/C1=C\[C@@H](C)C/C=C/[C@H]2[C@@H]3O[C@]3(C)[C@@H](C)[C@H]3[C@H](Cc4c[nH]c5ccccc45)NC(=O)[C@]32C(=O)/C=C/C(=O)[C@@H]1O` [chaetoglobosin A], where the note is “all ECs other than EC-m3”, the “Mean viability in the other ECs” value was 1.07. Also, under “expression cluster EC-m3”, the “Drug response associated with the EC” value is recorded as “Sensitive” and the “Mean viability in the EC” value was 0.98.
Turning to `CC(C)(C)c1cnc(CSc2cnc(NC(=O)C3CCNCC3)s2)o1` [SNS-032], under “all ECs other than EC-m4”, the “Mean viability in the other ECs” value is 0.73. Under “expression cluster EC-m4”, the “Drug response associated with the EC” value is “Sensitive” and the “Mean viability in the EC” value was found to be 0.66.
Regarding `C/C=C(/C)C(=O)O[C@H]1C(C)=C2[C@H]([C@@H]1OC(=O)CCCCCCC)[C@@](C)(OC(C)=O)C[C@H](OC(=O)CCC)[C@@]1(O)[C@H]2OC(=O)[C@@]1(C)O` [thapsigargin], the “Drug response associated with the EC” value is, setting by setting: (expression cluster EC-i) “Sensitive”; (expression cluster EC-u2) “Resistant”.
With `C[C@@H]1CN(CC(=O)Nc2ccc3c(c2)Cc2cccc(-c4cc(=O)cc(N5CCOCC5)o4)c2S3)C[C@H](C)O1` [KU-60019], the “Mean viability in the other ECs” value amounted to 0.97 (all ECs other than EC-m3) and 0.97 (all ECs other than EC-u2). The “Drug response associated with the EC” value runs as follows: (expression cluster EC-m3) “Resistant”; (expression cluster EC-u2) “Sensitive”. Also, the “Mean viability in the EC” value is, setting by setting: (expression cluster EC-m3) 1.00; (expression cluster EC-u2) 0.90.
Turning to `Cn1cc(-c2[nH]c3cc(NC(=O)[C@H](N)C4CCCCC4)cc4c3c2C=NNC4=O)cn1` [PF 477736], the “Drug response associated with the EC” value (expression cluster EC-m1) is given as “Resistant”, the “Drug response associated with the EC” value (expression cluster EC-m3) was “Resistant”, the “Drug response associated with the EC” value (expression cluster EC-m4) is given as “Resistant” and the “Drug response associated with the EC” value (expression cluster EC-u1) is “Sensitive”.
Take `CO[C@H]1C[C@@H]2CC[C@@H](C)[C@@](O)(O2)C(=O)C(=O)N2CCCC[C@H]2C(=O)O[C@H]([C@H](C)C[C@@H]2CC[C@@H](OCCO)[C@H](OC)C2)CC(=O)[C@H](C)/C=C(\C)[C@@H](O)[C@@H](OC)C(=O)[C@H](C)C[C@H](C)/C=C/C=C/C=C/1C` [everolimus]: the “Mean viability in the other ECs” value (all ECs other than EC-u1) was determined as 0.95. Under “expression cluster EC-u1”, the “Drug response associated with the EC” value was “Resistant” and the “Mean viability in the EC” value was 0.99.
Consider `O=C(Nc1cccc(Nc2ncc(Br)c(NCCc3cnc[nH]3)n2)c1)N1CCCC1` [BX912], for which the “Mean viability in the other ECs” value (all ECs other than EC-u1) amounted to 1.07. Under “expression cluster EC-u1”, the “Drug response associated with the EC” value is recorded as “Sensitive” and the “Mean viability in the EC” value is recorded as 1.05.
The corresponding values for `Cc1c2oc3c(C)ccc(C(=O)N[C@@H]4C(=O)N[C@H](C(C)C)C(=O)N5CCC[C@H]5C(=O)N(C)CC(=O)N(C)[C@@H](C(C)C)C(=O)O[C@@H]4C)c3nc-2c(C(=O)N[C@@H]2C(=O)N[C@H](C(C)C)C(=O)N3CCC[C@H]3C(=O)N(C)CC(=O)N(C)[C@@H](C(C)C)C(=O)O[C@@H]2C)c(N)c1=O` [actinomycin D] (I: T[dV]P[Sar][NMeV] / II: T[dV]P[Sar][NMeV]; ester I:1-I:C, II:1-II:C; linker I:N-II:N via Actinocin(9to1)) are 0.27, “Resistant” and 0.37.
With `CN(C)C/C=C/C(=O)Nc1cc2c(Nc3ccc(F)c(Cl)c3)ncnc2cc1O[C@H]1CCOC1` [afatinib], the “Mean viability in the other ECs” value reads like this: (all ECs other than EC-m3) 1.08; (all ECs other than EC-m4) 1.09. The “Mean viability in the EC” value by setting is: (expression cluster EC-m3) 1.03; (expression cluster EC-m4) 1.02.
